{
  "source": "patent US7407973B2",
  "about": "“Use of pirfenidone in therapeutic regimens” (Intermune, Inc., priority 2003, dated 2008)",
  "test_system": "STAT1",
  "test": "IFN-γ-induced STAT1 tyrosine phosphorylation in ME180 cells (immunoblot)",
  "assay_type": "cell-based, human",
  "conditions": "serum-starved ME180 cells; 100 μg/ml Pirfenidone for 1 h, then 10 ng/ml IFN-γ for 0-60 min; anti-phospho STAT1 immunoblot",
  "description": "ME180 cells were grown in DMEM supplemented with 10% heat inactivated fetal calf serum, 2 mM L-glutamine, streptomycin (100 μg/ml) and penicillin (100 units/ml). Briefly, cells were seeded at a density of 5×10^6 cells in 100 mm tissue culture dishes. After 24 hrs, cells were washed with phosphate-buffered saline (PBS) and incubated in serum free growth media for 16 hours, then treated with medium or with 100 μg/ml of Pirfenidone for 1 h before treating them with Actimune (10 ng/ml) for 0-10-20-40 and 60 min. At the end of incubation period, cells were lysed by incubation in 50 mM HEPES (pH 7.0) containing 100 mM NaCl, 1.2% Triton X-100, 10% glycerol, 1.5 mM MgCl2, 100 mM NaF, 10 mM sodium pyrophosphate, 1 mM sodium orthovanadate, 1 mM EGTA (ethylene glycol-bis-β-aminoethylether-tetraacetic acid), 1 mM DTT (dithiothreitol), 1 mM phenylmethylsulfonylfloride (PMSF), 0.15 unit/ml aprotinin, 10 μg/ml leupeptin, 10 μg/ml pepstatin. Lysates were clarified by centrifugation (12.000×g for 1 min.). Equal amounts (100 μg) total proteins were subjected to SDS-PAGE on 10% polyacrylamide gels to separate the proteins. The proteins were then electrophoretically transferred from the polyacrylamide gel onto a nitrocellulose sheet for overnight at 20 mAmp, and analyzed by immunoblotting with anti-phospho STAT1-specific antibody (antibody specific for phosphorylated STAT1). […]",
  "data": [
    {"compound": "Cc1ccc(=O)n(-c2ccccc2)c1", "note": "[pirfenidone, 5-methyl-1-phenyl-2-(1H)-pyridone]", "values": [
      {"measurement": "Effect on IFN-γ-induced STAT1 tyrosine phosphorylation", "value": "does not affect"}
    ]}
  ]
}
